According to US20260365670A1, “EGFR INHIBITORS AND USES THEREOF” (DIZAL (JIANGSU) PHARMACEUTICAL CO., LTD., priority 2022, published 2026):
pIC50: −log10 of the molar value. Like-named read-outs stand apart in the source and are kept apart here.

Assays:
[1] = tested on: A-431; assay: Cell proliferation GI50, A-431 cells (Table 6); format: cell-based
[2] = biological target: T1, EGFR L858R (Homo sapiens, UniProt P00533, L858R); assay: Inhibition of EGFR L858R biochemical enzymatic activity (HTRF); conditions: 1 mM ATP, 1 h, room temperature, read-out: IC50 (nM) @L858R
T1 construct: purchased Carna Bio
How it was run: (§1)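 Time-resolved FRET assay of EGFR substrate phosphorylation. Conditions: 1 μM TK substrate-biotin, 1 mM ATP, Mg/Mn buffer, 1 h at RT. IC50 from 4-parameter curve fit.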

[3] = biological target: T2, EGFR Exon19Del (Homo sapiens, UniProt P00533, DEL746-750); assay: Inhibition of EGFR Exon19Del biochemical enzymatic activity (HTRF); conditions: EGFR Del19, 1 mM ATP, 1 h, room temperature, read-out: IC50 @Del19
T2 construct: purchased Carna Bio
How it was run: as §1

[4] = tested on: PC-9; assay: Cell proliferation assay, PC-9 cells (CellTiter-Glo, 72 hours); format: cell-based; conditions: PC9 cells, CellTiter-Glo, read-out: PC9 GI50
How it was run: (§2)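 Luminescent viable-cell counts were taken on a day 0 plate at dosing and again at endpoint. Proliferation was calculated as (sample − G0)/(DMSO − G0). Seeding was 5000 Ba/F3 or 500 PC-9 cells per well in RPMI1640, followed by overnight attachment and serial compound dilutions. The GI50 was fitted.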

[5] = biological target: T3, EGFR wild type (Homo sapiens, UniProt P00533); assay: Inhibition of EGFR wild type biochemical enzymatic activity (HTRF); conditions: EGFR WT, 1 mM ATP, 1 h, room temperature, read-out: IC50 (nM) @WT
T3 construct: purchased Carna Bio
How it was run: as §1

[6] = biological target: T4, EGFR (d746-750 C797S) (Homo sapiens, UniProt P00533, C797S/DEL746-750); assay: Inhibition of EGFR (d746-750 C797S) biochemical enzymatic activity (HTRF); conditions: EGFR Del19-C797S, 1 mM ATP, 1 h, room temperature, read-out: IC50 (nM) @Del19-C797S
T4 construct: purchased signalchem
How it was run: as §1

[7] = biological target: T5, EGFR[T790M/C797S/L858R] (Homo sapiens, UniProt P00533, C797S/L858R/T790M); assay: Inhibition of EGFR[T790M/C797S/L858R] biochemical enzymatic activity (HTRF); conditions: EGFR T790M-C797S-L858R, 1 mM ATP, 1 h, room temperature, read-out: IC50 (nM) @T790M- C797S - L858R
T5 construct: purchased Carna Bio
How it was run: as §1

[8] = biological target: T6, EGFR L858R/T790M (Homo sapiens, UniProt P00533, L858R/T790M); assay: Inhibition of EGFR L858R/T790M biochemical enzymatic activity (HTRF); conditions: EGFR L858R-T790M, 1 mM ATP, 1 h, room temperature, read-out: IC50 (nM) @L858R-T790M
T6 construct: purchased Carna Bio
How it was run: as §1

[9] = biological target: T7, EGFR (C797S L858R) (Homo sapiens, UniProt P00533, C797S/L858R); assay: Inhibition of EGFR (C797S L858R) biochemical enzymatic activity (HTRF); conditions: EGFR L858-C797S, 1 mM ATP, 1 h, room temperature, read-out: IC50 (nM) @L858-C797S
T7 construct: purchased signalchem
How it was run: as §1

[10] = tested on: Ba/F3 cells expressing EGFR mutations; assay: Cell proliferation assay, Ba/F3 cells expressing EGFR mutations (CellTiter-Glo, 72 hours); format: cell-based; conditions: CellTiter-Glo
How it was run: as §2

[11] = biological target: T8, EGFR Exon19Del/T790M (Homo sapiens, UniProt P00533, DEL746-750/T790M); assay: Inhibition of EGFR Exon19Del/T790M biochemical enzymatic activity (HTRF); conditions: EGFR Del19-T790M, 1 mM ATP, 1 h, room temperature, read-out: IC50 (nM) @Del19-T790M
T8 construct: purchased Carna Bio
How it was run: as §1

[12] = biological target: T9, EGFR[T790M/C797S/d746-750] (Homo sapiens, UniProt P00533, C797S/DEL746-750/T790M); assay: Inhibition of EGFR[T790M/C797S/d746-750] biochemical enzymatic activity (HTRF); conditions: EGFR T790M-C797S-Del19, 1 mM ATP, 1 h, room temperature, read-out: IC50 (nM) @T790M - C797S - Del19
T9 construct: purchased Carna Bio
How it was run: as §1

[13] = BaF3 cells, EGFR DEL19-C797S, read-out: DEL19-C797S/BaF3 GI50
[14] = BaF3 cells, EGFR DEL19-T790-C797S, read-out: DEL19-T790-C797S/BaF3 GI50
[15] = BaF3 cells, EGFR L858R, read-out: L858R/BaF3 GI50
[16] = BaF3 cells, EGFR L858R-C797S, read-out: L858R-C797S/BaF3 GI50
[17] = BaF3 cells, EGFR L858R-T790-C797S, read-out: L858R-T790-C797S/BaF3 GI50
[18] = BaF3 cells, EGFR L858R-T790M, read-out: L858R-T790M/BaF3 GI50
[19] = EGFR DEL19-T790M, read-out: DEL19-T790M GI50
[20] = Homo sapiens, A-431, A-431 cells
[21] = Mus musculus, BaF3, 72 h, BaF3 cells, EGFR DEL19-C797S, read-out: DEL19-C797S/BaF3 GI50
[22] = Mus musculus, BaF3, 72 h, BaF3 cells, EGFR DEL19-T790-C797S, read-out: DEL19-T790-C797S/BaF3 GI50
[23] = Mus musculus, BaF3, 72 h, BaF3 cells, EGFR L858R, read-out: L858R/BaF3 GI50
[24] = Mus musculus, BaF3, 72 h, BaF3 cells, EGFR L858R-C797S, read-out: L858R-C797S/BaF3 GI50
[25] = Mus musculus, BaF3, 72 h, BaF3 cells, EGFR L858R-T790-C797S, read-out: L858R-T790-C797S/BaF3 GI50
[26] = Mus musculus, BaF3, 72 h, BaF3 cells, EGFR L858R-T790M, read-out: L858R-T790M/BaF3 GI50
[27] = Mus musculus, BaF3, 72 h, EGFR DEL19-T790M, read-out: DEL19-T790M GI50

T4 sequence (P00533 with tags, fused parts or gaps DEL746-750/C797S limits assumed): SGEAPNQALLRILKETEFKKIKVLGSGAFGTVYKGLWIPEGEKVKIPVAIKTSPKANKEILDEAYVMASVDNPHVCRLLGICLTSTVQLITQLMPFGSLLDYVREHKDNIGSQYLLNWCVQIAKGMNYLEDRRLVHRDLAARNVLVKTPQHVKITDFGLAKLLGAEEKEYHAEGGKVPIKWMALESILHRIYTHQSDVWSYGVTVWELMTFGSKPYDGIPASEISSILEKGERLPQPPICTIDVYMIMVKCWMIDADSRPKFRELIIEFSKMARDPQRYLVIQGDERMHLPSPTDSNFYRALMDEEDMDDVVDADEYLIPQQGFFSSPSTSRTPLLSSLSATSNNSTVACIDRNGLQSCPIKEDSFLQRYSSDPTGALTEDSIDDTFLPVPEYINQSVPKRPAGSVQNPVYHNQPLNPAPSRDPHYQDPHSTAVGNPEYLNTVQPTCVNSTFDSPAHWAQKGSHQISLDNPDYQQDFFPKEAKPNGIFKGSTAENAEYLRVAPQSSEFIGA
T3 sequence (P00533 25-1210): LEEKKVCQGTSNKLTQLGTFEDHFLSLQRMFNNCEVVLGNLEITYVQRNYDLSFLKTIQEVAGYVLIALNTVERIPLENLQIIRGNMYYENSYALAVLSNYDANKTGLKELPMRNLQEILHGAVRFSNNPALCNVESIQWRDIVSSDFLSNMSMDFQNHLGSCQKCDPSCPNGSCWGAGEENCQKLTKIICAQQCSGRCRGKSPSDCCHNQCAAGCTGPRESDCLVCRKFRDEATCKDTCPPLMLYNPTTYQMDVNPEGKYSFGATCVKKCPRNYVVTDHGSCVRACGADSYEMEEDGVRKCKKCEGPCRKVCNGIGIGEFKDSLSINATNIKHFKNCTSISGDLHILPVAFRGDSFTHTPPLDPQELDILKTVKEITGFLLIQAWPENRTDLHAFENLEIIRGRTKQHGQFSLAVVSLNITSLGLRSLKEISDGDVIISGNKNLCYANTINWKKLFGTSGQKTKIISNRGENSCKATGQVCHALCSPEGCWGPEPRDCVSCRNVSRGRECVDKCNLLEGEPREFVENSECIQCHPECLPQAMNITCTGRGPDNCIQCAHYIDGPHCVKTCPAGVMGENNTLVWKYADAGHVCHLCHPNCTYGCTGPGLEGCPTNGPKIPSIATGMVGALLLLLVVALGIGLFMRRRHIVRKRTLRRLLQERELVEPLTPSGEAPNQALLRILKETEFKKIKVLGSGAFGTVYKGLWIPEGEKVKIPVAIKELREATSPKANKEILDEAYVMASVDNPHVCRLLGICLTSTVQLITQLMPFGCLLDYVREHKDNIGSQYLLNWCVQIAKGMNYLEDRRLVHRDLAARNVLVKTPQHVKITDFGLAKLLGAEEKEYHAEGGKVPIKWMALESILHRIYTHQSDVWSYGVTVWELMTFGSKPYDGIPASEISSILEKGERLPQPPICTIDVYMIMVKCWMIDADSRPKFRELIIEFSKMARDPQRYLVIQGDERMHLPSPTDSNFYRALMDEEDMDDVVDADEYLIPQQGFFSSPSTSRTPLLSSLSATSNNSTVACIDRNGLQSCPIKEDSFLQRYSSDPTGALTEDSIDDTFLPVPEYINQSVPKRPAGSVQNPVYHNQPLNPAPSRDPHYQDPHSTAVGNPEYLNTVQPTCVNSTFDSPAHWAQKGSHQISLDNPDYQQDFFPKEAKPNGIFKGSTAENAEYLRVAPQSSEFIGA
T9 sequence (P00533 with tags, fused parts or gaps DEL746-750/T790M/C797S limits assumed): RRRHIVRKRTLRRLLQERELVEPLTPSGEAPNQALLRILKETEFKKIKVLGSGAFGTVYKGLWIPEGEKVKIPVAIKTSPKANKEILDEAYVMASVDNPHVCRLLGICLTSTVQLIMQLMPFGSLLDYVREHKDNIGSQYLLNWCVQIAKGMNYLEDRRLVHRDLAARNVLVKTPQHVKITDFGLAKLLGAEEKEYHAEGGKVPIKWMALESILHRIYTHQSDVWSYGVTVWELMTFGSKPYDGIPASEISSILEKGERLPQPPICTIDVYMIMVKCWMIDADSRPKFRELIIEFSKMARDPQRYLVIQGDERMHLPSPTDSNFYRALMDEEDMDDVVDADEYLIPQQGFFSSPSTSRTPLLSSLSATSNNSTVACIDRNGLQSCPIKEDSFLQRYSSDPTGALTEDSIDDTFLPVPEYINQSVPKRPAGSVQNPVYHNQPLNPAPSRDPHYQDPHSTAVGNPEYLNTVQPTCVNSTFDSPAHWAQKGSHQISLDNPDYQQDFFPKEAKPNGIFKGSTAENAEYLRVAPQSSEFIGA
T8 sequence (P00533 with tags, fused parts or gaps DEL746-750/T790M limits assumed): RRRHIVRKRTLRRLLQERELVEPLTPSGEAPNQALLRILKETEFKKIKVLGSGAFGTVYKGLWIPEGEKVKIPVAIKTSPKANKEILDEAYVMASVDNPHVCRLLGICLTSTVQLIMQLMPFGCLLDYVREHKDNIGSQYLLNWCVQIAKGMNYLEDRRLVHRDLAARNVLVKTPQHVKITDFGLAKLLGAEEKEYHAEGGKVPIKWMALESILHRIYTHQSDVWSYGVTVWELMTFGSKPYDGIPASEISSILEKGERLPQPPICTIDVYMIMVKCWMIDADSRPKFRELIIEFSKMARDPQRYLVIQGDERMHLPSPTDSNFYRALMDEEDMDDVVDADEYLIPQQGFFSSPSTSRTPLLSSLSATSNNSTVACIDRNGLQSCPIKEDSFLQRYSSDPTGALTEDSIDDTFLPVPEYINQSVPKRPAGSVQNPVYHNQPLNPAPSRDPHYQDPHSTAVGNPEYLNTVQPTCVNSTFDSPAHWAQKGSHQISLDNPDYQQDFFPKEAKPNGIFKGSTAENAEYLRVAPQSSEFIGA
T7 sequence (P00533 25-1210 C797S/L858R): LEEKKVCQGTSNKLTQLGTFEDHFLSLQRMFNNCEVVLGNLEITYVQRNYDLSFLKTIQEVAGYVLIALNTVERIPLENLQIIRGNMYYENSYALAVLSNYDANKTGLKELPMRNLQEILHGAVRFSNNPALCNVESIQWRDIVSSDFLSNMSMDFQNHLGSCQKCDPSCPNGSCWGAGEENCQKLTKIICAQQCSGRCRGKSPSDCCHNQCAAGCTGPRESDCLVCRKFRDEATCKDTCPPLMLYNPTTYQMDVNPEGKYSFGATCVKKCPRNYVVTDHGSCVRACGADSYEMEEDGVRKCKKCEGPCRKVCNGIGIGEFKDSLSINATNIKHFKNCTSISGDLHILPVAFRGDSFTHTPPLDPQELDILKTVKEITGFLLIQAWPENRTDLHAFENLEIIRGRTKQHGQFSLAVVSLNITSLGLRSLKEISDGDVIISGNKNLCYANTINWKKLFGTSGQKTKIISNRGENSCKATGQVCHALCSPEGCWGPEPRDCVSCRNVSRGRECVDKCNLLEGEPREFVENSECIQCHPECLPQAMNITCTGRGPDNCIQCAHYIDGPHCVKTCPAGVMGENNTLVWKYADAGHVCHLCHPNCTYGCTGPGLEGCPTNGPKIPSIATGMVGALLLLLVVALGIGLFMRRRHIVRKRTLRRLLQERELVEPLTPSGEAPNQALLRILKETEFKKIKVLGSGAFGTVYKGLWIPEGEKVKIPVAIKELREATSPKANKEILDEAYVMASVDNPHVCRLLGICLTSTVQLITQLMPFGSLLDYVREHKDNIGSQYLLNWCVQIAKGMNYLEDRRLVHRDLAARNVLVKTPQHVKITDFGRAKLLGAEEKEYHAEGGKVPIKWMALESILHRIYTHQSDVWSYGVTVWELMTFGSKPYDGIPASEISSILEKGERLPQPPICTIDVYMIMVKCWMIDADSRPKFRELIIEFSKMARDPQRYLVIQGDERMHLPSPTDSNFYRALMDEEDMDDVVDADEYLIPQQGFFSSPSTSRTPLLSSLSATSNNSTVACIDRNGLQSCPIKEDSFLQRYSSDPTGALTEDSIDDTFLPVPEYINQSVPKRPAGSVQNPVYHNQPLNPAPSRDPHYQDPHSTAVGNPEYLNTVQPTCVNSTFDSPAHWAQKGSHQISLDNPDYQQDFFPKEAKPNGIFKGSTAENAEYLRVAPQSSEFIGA
T2 sequence (P00533 with tags, fused parts or gaps DEL746-750 limits assumed): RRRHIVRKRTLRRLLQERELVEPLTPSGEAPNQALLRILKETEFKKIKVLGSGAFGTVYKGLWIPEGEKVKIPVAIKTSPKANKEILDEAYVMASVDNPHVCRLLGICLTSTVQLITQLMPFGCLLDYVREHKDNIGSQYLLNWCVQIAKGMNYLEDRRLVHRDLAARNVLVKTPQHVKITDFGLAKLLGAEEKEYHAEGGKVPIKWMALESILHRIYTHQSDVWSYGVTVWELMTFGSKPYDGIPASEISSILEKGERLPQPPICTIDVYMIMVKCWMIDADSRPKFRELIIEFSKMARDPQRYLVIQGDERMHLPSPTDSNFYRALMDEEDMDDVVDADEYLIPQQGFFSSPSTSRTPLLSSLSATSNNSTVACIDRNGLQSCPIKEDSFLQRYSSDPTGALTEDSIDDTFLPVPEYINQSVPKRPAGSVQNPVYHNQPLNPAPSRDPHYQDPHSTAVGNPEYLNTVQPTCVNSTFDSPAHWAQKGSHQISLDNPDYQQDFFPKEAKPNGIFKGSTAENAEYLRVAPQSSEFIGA

Row | SMILES | GI50 ([1]; A-431 cells) | IC50 [2] | pIC50 [3] | GI50 [4] | IC50 [5] | IC50 [6] | IC50 [7] | IC50 [8] | IC50 [9] | GI50 [10, 13] | GI50 [10, 14] | GI50 [10, 15] | GI50 [10, 16] | GI50 [10, 17] | GI50 [10, 18] | GI50 [10, 19] | IC50 [11] | IC50 [12] | GI50 [1, 20] | GI50 ([4]; Homo sapiens, PC-9, 72 h) | further results
1 | CN1CC2CN(c3ccc4nc5n(c4c3)C34CCC(CN(CCOc6c(cnn6C)-c6cc(cn(C)c6=O)C(=O)N5)C3)C4)CC2C1 (single isomer, unassigned) [Example A68B] | 284 nM | 2.9 nM | 8.92 | 3.5 nM | 8.9 nM | 0.95 nM | 1.8 nM | 1.8 nM | 3.1 nM | 0.66 nM | 1.3 nM | 2.1 nM | 2.8 nM | 1.3 nM | 9.6 nM | 1.8 nM | 1.8 nM | 1.8 nM | – | – | –
2 | CN(C)C1CCN(c2ccc3nc4n(c3c2)C23CCC(CN(CCOc5c(cnn5C)-c5cc(cn(C)c5=O)C(=O)N4)C2)C3)CC1(F)F (single isomer, unassigned) [Example A97A] | 5790 nM | 3030 nM | 5.92 | 763 nM | > 5000 nM | 850 nM | > 5000 nM | > 5000 nM | 3950 nM | 102 nM | 527 nM | 129 nM | 325 nM | 124 nM | 1000 nM | 459 nM | > 5000 nM | > 5000 nM | – | – | –
3 | CCN1CCN(c2ccc3nc4n(c3c2)C[C@H](C)CCCOc2c(cnn2C)-c2cc(cn(C)c2=O)C(=O)N4)CC1 [Example A49] | – | 45 nM | 8.26 | – | 694 nM | 2.8 nM | 5.1 nM | 8.1 nM | 16 nM | – | – | – | – | – | – | – | 6 nM | 4.9 nM | 251 nM | 12 nM | GI50 [10, 21]: 2 nM; GI50 [10, 22]: 12 nM; GI50 [10, 23]: 5.7 nM; GI50 [10, 24]: 7 nM; GI50 [10, 25]: 5.3 nM; GI50 [10, 26]: 72 nM; GI50 [10, 27]: 18 nM
4 | CN(C)C1CN(c2ccc3nc4n(c3c2)C23CCC(CN(CCOc5c(cnn5C)-c5cc(cn(C)c5=O)C(=O)N4)C2)C3)CC1F (single isomer, unassigned) [Example A84C, 15,21-Dimethyl-5-[4-fluoro-3-(N,N-dimethylamino)pyrrolidinyl]-23-oxa-2,9,11,15,20,21,26-heptaazaheptacyclo[24.4.1.1^{1,28}.1^{13,17}.0^{2,10}.0^{3,8}.0^{18,22}]tritriaconta-3,5,7,9,13,17(33),18(22),19-octaene-12,16-dione] | 727 nM | 6.7 nM | 8.59 | 6.6 nM | 57 nM | 1.4 nM | 3.5 nM | 5 nM | 4.8 nM | 0.72 nM | 2.1 nM | 2.1 nM | 3.9 nM | 6 nM | 12 nM | 2.7 nM | 3.4 nM | 2.5 nM | – | – | –
5 | C[C@@H]1CCCOc2c(cnn2C)-c2cc(cn(C)c2=O)C(=O)Nc2nc3ccc(N4CCN(C)CC4)cc3n2C1 [Example A25, (11R)-5,11,26-trimethyl-16-(4-methylpiperazin-1-yl)-7-oxa-4,5,13,20,22,26-hexaazapentacyclo[22.3.1.0^{2,6}.0^{13,21}.0^{14,19}]octacosa-1(28),2(6),3,14,16,18,20,24-octaene-23,27-dione] | – | 24 nM | 8.80 | – | 323 nM | 1 nM | 1.6 nM | 2 nM | 6 nM | – | – | – | – | – | – | – | 1.6 nM | 1.6 nM | 486 nM | 12 nM | GI50 [10, 21]: 1.4 nM; GI50 [10, 22]: 13 nM; GI50 [10, 23]: 2.4 nM; GI50 [10, 24]: 9.3 nM; GI50 [10, 25]: 5.6 nM; GI50 [10, 26]: 16 nM; GI50 [10, 27]: 9.2 nM
6 | CCN1CCN(c2ccc3nc4n(c3c2)C23CCC(CN(CCOc5c(cnn5C)-c5cc(cn(C)c5=O)C(=O)N4)C2)C3)CC1 (single isomer, unassigned) [Example A107A] | 2420 nM | 770 nM | 6.57 | 238 nM | > 5000 nM | 245 nM | > 5000 nM | > 5000 nM | 1040 nM | 66 nM | 160 nM | 240 nM | 105 nM | 235 nM | 332 nM | 183 nM | 4500 nM | 2860 nM | – | – | –
7 | C[C@@H]1CCCOc2c(cnn2C)-c2cc(cn(C)c2=O)C(=O)Nc2nc3ccc(N4CCN(CC(F)(F)F)CC4)cc3n2C1 [Example A53] | – | 462 nM | 7.82 | – | > 5000 nM | 7.2 nM | 21 nM | 70 nM | 135 nM | – | – | – | – | – | – | – | 12 nM | 13 nM | 639 nM | 51 nM | GI50 [10, 21]: 7.4 nM; GI50 [10, 22]: 27 nM; GI50 [10, 23]: 28 nM; GI50 [10, 24]: 34 nM; GI50 [10, 25]: 35 nM; GI50 [10, 26]: 51 nM; GI50 [10, 27]: 49 nM
8 | Cn1ncc2c1OCCN1CC3CCC(C3)(C1)n1c(nc3ccccc31)NC(=O)c1cc-2c(=O)n(C)c1 (single isomer, unassigned) [Example A61A, 15,21-Dimethyl-23-oxa-2,9,11,15,20,21,26-heptaazaheptacyclo[24.4.1.1^{1,28}.1^{13,17}.0^{2,10}.0^{3,8}.0^{18,22}]tritriaconta-3,5,7,9,13,17(33),18(22),19-octaene-12,16-dione] | – | > 5000 nM | 5.66 | – | > 5000 nM | 1660 nM | > 5000 nM | > 5000 nM | > 5000 nM | – | – | – | – | – | – | – | > 5000 nM | > 5000 nM | 5900 nM | 1910 nM | GI50 [10, 21]: 521 nM; GI50 [10, 22]: 688 nM; GI50 [10, 23]: 1370 nM; GI50 [10, 24]: 1740 nM; GI50 [10, 25]: 1910 nM; GI50 [10, 26]: 2660 nM; GI50 [10, 27]: 913 nM
